From article PMC12833874 (Journal of Medicinal Chemistry, 2025)
Read-outs that look alike come from different tables or passages of the source.

Assays:
SNAP-NOPr = molecular target: T1, SNAP-NOPr (Homo sapiens, UniProt P41146); experiment: Confocal imaging of fluorescent ligand binding, live FlpIn CHO cells stably expressing SNAP-NOPr; assay type: cell-based; settings: for fluorescent ligand binding (confocal images): 1 μM, 30 min at 37 °C, live cells
T1 construct: expressed in transfected cells
T1 sequence (P41146 whole entry): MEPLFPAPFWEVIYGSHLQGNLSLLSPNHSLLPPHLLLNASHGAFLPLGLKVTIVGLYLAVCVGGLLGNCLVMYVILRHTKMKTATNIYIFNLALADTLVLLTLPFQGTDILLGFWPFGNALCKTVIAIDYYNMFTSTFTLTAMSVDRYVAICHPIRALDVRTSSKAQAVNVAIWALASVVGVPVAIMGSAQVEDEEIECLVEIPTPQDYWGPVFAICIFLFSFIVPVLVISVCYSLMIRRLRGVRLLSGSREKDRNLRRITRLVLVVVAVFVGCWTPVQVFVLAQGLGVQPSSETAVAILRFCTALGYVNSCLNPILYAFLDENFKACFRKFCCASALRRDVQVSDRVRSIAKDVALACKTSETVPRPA
Protocol: To first assess whether the library of fluorescent ligands (13a-h and 14h) can specifically label the NOPr, single time point confocal images of live FlpIn CHO cells stably expressing SNAP-NOPr were captured. Cells were incubated with fluorescent ligands 13a-h and 14h (1 μM) to assess the fluorescent ligand binding.
3 Single time point confocal images of live FlpIn CHO cells stably expressing SNAP-NOPr. Cells were labeled with SNAP-AF488 (cyan) to visualize SNAP-NOPr expression (a–d) and incubated for 30 min at 37 °C with fluorescent ligands 13e–h (1 μM) (magenta) to visualize fluorescent ligand binding (e-h).
For all experiments, live cell single time point confocal images were captured using a Zeiss Cell Discoverer 7 LSM 900 high-content automated confocal microscope. Two images per well were captured using a 10× objective and the Cy5 channel (650 λex, 673 λem), the AF488 (495λex, 520 λem) channel, and the CFP (433λex, 475 λem) channel. All cells were imaged in an imaging buffer containing (2 mM sodium pyruvate, 145 mM NaCl, 10 mM D-glucose, 5 mM KCl, 1 mM MgSO4·7H2O, 10 mM HEPES, 1.3 mM CaCl2 dihydrate, and 1.5 mM NaHCO3).
Stably expressing SNAP-NOPr FlpIn-CHO cells suspended in DMEM (D6421) (100 μL) were seeded (10,000 cells/well) into 96-well poly-D-lysine (PDL)-coated Greiner black polyester plates. Cells were incubated for 48 h at 37 °C and 5% CO2 prior to imaging.
Before measurement, the media were removed, and cells were washed with 90 μL of imaging buffer. Cells were then incubated with SNAP-AF488 (New England Biolabs) (0.5 μg·mL^–1) in imaging buffer for 30 min at 37 °C. After incubation, the SNAP-AF488 solution was aspirated and cells were rinsed twice with imaging buffer (90 μL). […] Cells were incubated for 30 min at 37 °C and 5% CO2 before the images were captured.

NOPr [1] = molecular target: T2, NOPr (Homo sapiens, UniProt P41146); experiment: BRET G-protein activation (GPA) assay, Gαi2, agonist and antagonist mode, Flp-In-NOPr-CHO cells; assay type: cell-based; settings: for reduction in inhibitory potency from N-Boc congener to fluorescent ligand: 11g to 13g, 11h to 13h and 14h
T2 sequence (P41146 whole entry): as above
Protocol: The functional activity of congeners 11a-h was assessed in a bioluminescence resonance energy transfer (BRET) assay measuring NOPr activation of the Gαi2 G protein through release of Gβγ subunits in Flp-In-NOPr-Chinese hamster ovary (CHO) cells, as summarized in Figure a.
Data represent the mean ± SEM of n = 4 experiments performed in duplicate. (a) Illustrative representation of the GPA assayligand-induced receptor activation causes G protein dissociation, releasing a Venus-tagged Gβγ (acceptor) to interact with a membrane-localized c-terminus of G protein-coupled receptor kinase 3 (masGRK3ct) fused to a renilla luciferase enzyme (RLuc8) (donor). […] After a 10 min incubation with the R-Luc substrate coelenterazine and NOPr ligands, luminescence was measured to quantify GPA as a BRET ratio between acceptor λem 535 nm/donor λem 475 nm.
Flp-In CHO cells stably expressing SNAP-NOPr were transiently transfected with Gαi2 (2 μg), Gβ1-Venus (156–259)­(1 μg), Gγ2-Venus­(1–155)­(1 μg), and masGRK3ct-RLuc8 (1 μg) using polyethylenimine (PEI) in a 1:6 DNA/PEI ratio. The mixture was suspended in sterile NaCl, vortexed, and then incubated (10 min, RT), before being added to the cells in fresh antibiotic media DMEM (7 mL) supplemented with 10% FBS (v/v) and penicillin (50 units·mL^–1)- streptomycin (50 μg.mL^–1).
Cells were then incubated with coelenterazine H (NanoLight Technology) (10 μL/well, 50 μM, 5 min, RT) before ligands were added to the 96-well plate with final ligand concentrations ranging from (10 μM-0.01 nM). […] Cells were incubated in the plate reader, and luminescence was read using dual emission detection at 475 nm (Rluc8 Donor) and 535 nm emission (BRET signal) at 10 and 30 min. Plates were read on a PHERAstar (BMG Lab Tech), and data were exported through MARS and analyzed using Prism (GraphPad, Version 10).

NOPr [2] = molecular target: T2, NOPr; experiment: TR-FRET equilibrium saturation binding, Lumi4Tb-SNAP-NOPr CHO membranes
Protocol: The levels of specific binding (total – nonspecific) were calculated and used to determine the dissociation constant (K D) as a measure of affinity.
For 13g-h, the homogeneous TR-FRET (HTRF) ratio [(acceptor λem (665 nM)/donor λem (620 nM) × 10000)] is plotted against ligand concentration (nM) for the total binding (solid circle) and nonspecific binding (NSB) (hollow circle). […] For end point saturation binding assays, data represent the mean ± SEM of n = 3 experiments performed in duplicate, and for kinetic binding studies, all data represent the mean of n = 3 experiments.
All ligands were prepared in TR-FRET buffer, consisting of Hanks’ Balanced Salt Solution (Sigma-Aldrich H6648) (KCl 5 mM, KH2PO4 0.4 mM, NaHCO3 4 mM, NaCl 137 mM, Na2HPO4 0.3 mM), Pluronic-F127 (0.02% w/v), DMSO (1% v/v), and glucose (1 mg.mL^–1), adjusted to pH 7.4. Membrane aliquots were thawed on ice prior to use, and membrane suspensions [membrane (0.05 μg.μL^–1), Gpp­(NH)p (100 μM), and saponin (50 μg.mL^–1)] were prepared in TR-FRET buffer. To ensure homogeneity, the membrane suspension was passed through a 27-gauge needle before use. Measurements were made in low-binding 384-well optiplates (PerkinElmer) on a PHERAstar (BMG Labtech) plate reader using the HTRF module [337 nm excitation with dual emission detection at 620 nm (terbium cryptate donor) and 665 nm emission (fluorescent ligand acceptor)] at a focal height of 11.4 mm. Integration was started 60 μs post irradiation (4 flashes/well) for 400 μs, all saturation and competition binding experiments were carried out in duplicate wells, and data were reported as the mean HTRF ratio ((acceptoremission/donoremission)×10,000) from 3 repeat measurements ±SEM.
Membrane solution (20 μL) was added, and the measurement was taken after a 2 h incubation at 37 °C. All data were converted to specific binding (total – nonspecific) and fitted using eq to determine K D. 2 HTRFratio×10,000=Bmax[FL]/(KD+[FL])

[3] = antagonist mode, inhibition of EC80 concentration of N/OFQ, n = 4 in duplicate, read-out: IC50 (converted)
[4] = antagonist mode, inhibition of EC80 concentration of N/OFQ, n = 4 in duplicate, read-out: pIC50 ± SEM (converted)
[5] = supplementary csv, GPA assay antagonist mode, read-out: NOP IC50 (converted)
[6] = supplementary csv, GPA assay antagonist mode, read-out: NOP pIC50 ± SEM (converted)
[7] = IC50, antagonist mode, inhibition of EC80 concentration of N/OFQ, n = 4 in duplicate
[8] = NOP pIC50 ± SEM, supplementary csv, GPA assay antagonist mode
[9] = pIC50 ± SEM, antagonist mode, inhibition of EC80 concentration of N/OFQ, n = 4 in duplicate
[10] = NOP IC50 (nM), supplementary csv, GPA assay antagonist mode

Compound | IC50 (NOPr [1]; [3]) [nM] | IC50 (NOPr [1]; [4]) [nM] | IC50 (NOPr [1]; [5]) [nM] | IC50 (NOPr [1]; [6]) [nM] | IC50 (NOPr [1]; [7]) [nM] | IC50 (NOPr [1]; [8]) [nM] | IC50 (NOPr [1]; [9]) [nM] | other results
CN1/C(=C/C=C/C=C/C2=[N+](CCCCCC(=O)NCCOc3cccc(C(=O)N4CCC[C@@H]4C(=O)NCCCN4CCC5(CC4)OCc4ccccc45)c3)c3ccc(S(=O)(=O)[O-])cc3C2(C)C)C(C)(C)c2cc(S(=O)(=O)[O-])ccc21.[K+] [13e, Potassium 1-(6-((2-(3-((R)-2-((3-(3H-Spiro[isobenzofuran-1,4′-piperidin]-1′-yl)propyl)carbamoyl)pyrrolidine-1-carbonyl)phenoxy)ethyl)amino)-6-oxohexyl)-3,3-dimethyl-2-((1E,3E)-5-((E)-1,3,3-trimethyl-5-sulfonatoindolin-2-ylidene)penta-1,3-dien-1-yl)-3H-indol-1-ium-5-sulfonate] | – | – | – | – | – | – | – | fluorescent ligand binding (confocal images) (SNAP-NOPr): Binding was observed
CC(C)(C)OC(=O)NCCCCC(=O)N1CCC[C@@H]1C(=O)NCCCN1CCC2(CC1)OCc1ccccc12 [11d, tert-Butyl (R)-(5-(2-((3-(3H-Spiro[isobenzofuran-1,4′-piperidin]-1′-yl)propyl)carbamoyl)pyrrolidin-1-yl)-5-oxopentyl)carbamate] | 1200 | 1260 | 1230 | 1230 | – | – | – | –
C[C@H](NC(=O)OC(C)(C)C)C(=O)N1CCC[C@@H]1C(=O)NCCCN1CCC2(CC1)OCc1ccccc12 [11a, tert-Butyl ((S)-1-((R)-2-((3-(3H-Spiro[isobenzofuran-1,4′-piperidin]-1′-yl)propyl)carbamoyl)pyrrolidin-1-yl)-1-oxopropan-2-yl)carbamate] | – | – | – | – | 11700 | 11700 | 12600 | –
O=C(CCCCCNC(=O)COc1ccc(/C=C/C2=[N+]3C(=Cc4ccc(-c5cccs5)n4[B-]3(F)F)C=C2)cc1)NCCOc1ccc(CN2CCC[C@@H]2C(=O)NCCCN2CCC3(CC2)OCc2ccccc23)cc1 [14h, (R,E)-N-(3-(3H-Spiro[isobenzofuran-1,4′-piperidin]-1′-yl)propyl)-1-(4-(2-(6-(2-(4-(2-(5,5-Difluoro-7-(thiophen-2-yl)-5H-4λ^4,5λ^4-dipyrrolo[1,2-c:2′,1′-f][1,3,2]diazaborinin-3-yl)vinyl)phenoxy)acetamido)hexanamido)ethoxy)benzyl)pyrrolidine-2-carboxamide] | 130 | 126 | 126 | – | – | – | – | reduction in inhibitory potency from N-Boc congener to fluorescent ligand (NOPr [1]): ≥ 20 fold; functional agonism at the NOPr (NOPr [1]; agonist mode, absence of N/OFQ): no functional agonism; specificity of labeling: displacement by SB-612111 / nonspecific labeling (SNAP-NOPr; 1 μM ligand, SB-612111 1 μM): significant nonspecific labeling
CC(C)(C)OC(=O)NCCOc1cccc(C(=O)N2CCC[C@@H]2C(=O)NCCCN2CCC3(CC2)OCc2ccccc23)c1 [11e, tert-Butyl (R)-(2-(3-(2-((3-(3H-Spiro[isobenzofuran-1,4′-piperidin]-1′-yl)propyl)carbamoyl)pyrrolidine-1-carbonyl)phenoxy)ethyl)carbamate] | 370 | 398 | 372 | 372 | – | – | – | –
CN1/C(=C/C=C/C=C/C2=[N+](CCCCCC(=O)NCCOc3ccc(C(=O)N4CCC[C@@H]4C(=O)NCCCN4CCC5(CC4)OCc4ccccc45)cc3)c3ccc(S(=O)(=O)[O-])cc3C2(C)C)C(C)(C)c2cc(S(=O)(=O)[O-])ccc21.[K+] [13f, Potassium 1-(6-((2-(4-((R)-2-((3-(3H-Spiro[isobenzofuran-1,4′-piperidin]-1′-yl)propyl)carbamoyl)pyrrolidine-1-carbonyl)phenoxy)ethyl)amino)-6-oxohexyl)-3,3-dimethyl-2-((1E,3E)-5-((E)-1,3,3-trimethyl-5-sulfonatoindolin-2-ylidene)penta-1,3-dien-1-yl)-3H-indol-1-ium-5-sulfonate] | – | – | – | – | – | – | – | fluorescent ligand binding (confocal images) (SNAP-NOPr): Binding was observed
CN1/C(=C/C=C/C=C/C2=[N+](CCCCCC(=O)NCCOc3ccc(CN4CCC[C@@H]4C(=O)NCCCN4CCC5(CC4)OCc4ccccc45)cc3)c3ccc(S(=O)(=O)[O-])cc3C2(C)C)C(C)(C)c2cc(S(=O)(=O)[O-])ccc21.[K+] [13h, Potassium 1-(6-((2-(4-(((R)-2-((3-(3H-Spiro[isobenzofuran-1,4′-piperidin]-1′-yl)propyl)carbamoyl)pyrrolidin-1-yl)methyl)phenoxy)ethyl)amino)-6-oxohexyl)-3,3-dimethyl-2-((1E,3E)-5-((E)-1,3,3-trimethyl-5-sulfonatoindolin-2-ylidene)penta-1,3-dien-1-yl)-3H-indol-1-ium-5-sulfonate] | – | – | – | – | – | – | – | binding behaviour at the highest concentration tested (NOPr [2]; 400 nM): saturable binding with minimal nonspecific binding; higher affinity of 13h than 13g (NOPr [2]; saturation KD): 5 fold; reduction in inhibitory potency from N-Boc congener to fluorescent ligand (NOPr [1]): ≥ 20 fold; fluorescent ligand binding (confocal images) (SNAP-NOPr): more pronounced binding
CC(C)(C)OC(=O)NCCC(=O)N1CCC[C@@H]1C(=O)NCCCN1CCC2(CC1)OCc1ccccc12 [11b, tert-Butyl (R)-(3-(2-((3-(3H-Spiro[isobenzofuran-1,4′-piperidin]-1′-yl)propyl)carbamoyl)pyrrolidin-1-yl)-3-oxopropyl)carbamate] | – | – | – | – | 7800 | 7760 | 7940 | IC50 (NOPr [1]; [10]): 7760 nM
CC(C)(C)OC(=O)NCCOc1ccc(CN2CCC[C@@H]2C(=O)NCCCN2CCC3(CC2)OCc2ccccc23)cc1 [11h, tert-Butyl (R)-(2-(4-((2-((3-(3H-Spiro[isobenzofuran-1,4′-piperidin]-1′-yl)propyl)carbamoyl)pyrrolidin-1-yl)methyl)phenoxy)ethyl)carbamate] | – | – | – | – | 5.5 | 5.5 | 5.01 | –
CC(C)(C)OC(=O)NCCCC(=O)N1CCC[C@@H]1C(=O)NCCCN1CCC2(CC1)OCc1ccccc12 [11c, tert-Butyl (R)-(4-(2-((3-(3H-Spiro[isobenzofuran-1,4′-piperidin]-1′-yl)propyl)carbamoyl)pyrrolidin-1-yl)-4-oxobutyl)carbamate] | 4900 | 5010 | – | 4900 | – | – | – | –
CC(C)(C)OC(=O)NCCOc1cccc(CN2CCC[C@@H]2C(=O)NCCCN2CCC3(CC2)OCc2ccccc23)c1 [11g, tert-Butyl (R)-(2-(3-((2-((3-(3H-Spiro[isobenzofuran-1,4′-piperidin]-1′-yl)propyl)carbamoyl)pyrrolidin-1-yl)methyl)phenoxy)ethyl)carbamate] | – | – | – | – | 20 | 19.5 | 20 | IC50 (NOPr [1]; [10]): 19.5 nM
CC(C)(C)OC(=O)NCCOc1ccc(C(=O)N2CCC[C@@H]2C(=O)NCCCN2CCC3(CC2)OCc2ccccc23)cc1 [11f, tert-Butyl (R)-(2-(4-(2-((3-(3H-Spiro[isobenzofuran-1,4′-piperidin]-1′-yl)propyl)carbamoyl)pyrrolidine-1-carbonyl)phenoxy)ethyl)carbamate] | 270 | 251 | 269 | 269 | – | – | – | –
